Assays:
[1] = Solubility of cellobiose when combined with xylo-oligosaccharides; assay type: physicochemical; details: 20-320 mg/mL, vortexed 30 seconds, in the presence of half or the same concentration of xylo-oligosaccharides (e.g., at 80 mg/mL)
Protocol: 1. Solutions/suspensions of cellobiose at concentrations from 20-320 mg/mL were vortexed for 30 seconds alone (FIG. 4, panel a), in the presence of half the concentration of xylo-oligosaccharides (FIG. 4, panel b), or the same concentration of xylo-oligosaccharides (FIG. 4, panel c).

[2] = Hygroscopicity of oligosaccharide powder at 25° C. in 100% humidity; assay type: physicochemical; details: 5 g, 10 hours at 25° C. in 100% humidity
Description: The compositions are to be used in a wide range of foodstuff, cosmetic, or nutraceutical applications, therefore the required hygroscopicity for each application can vary. The aim of this example was to test if hygroscopicity can be adapted by altering the oligosaccharide compositions. • 1. 5 g of oligosaccharide compositions (cellobiose, 4:1 cellobiose:xylo-oligosaccharide, 3:2 cellobiose:xylo-oligosaccharide, 2:3 cellobiose:xylo-oligosaccharide, 1:4 cellobiose:xylo-oligosaccharide, xylo-oligosaccharide) were incubated for 10 hours at 25° C. in 100% humidity. • 2.

SMILES: O=C[C@H](O)[C@@H](O)[C@H](O[C@@H]1O[C@H](CO)[C@@H](O)[C@H](O)[C@H]1O)[C@H](O)CO [cellobiose]
- dissolution of cellobiose [1]: enabled more readily at higher concentrations
- water uptake [2]: effectively resisted water uptake

Reference: patent publication US11596165B2, “Compositions, their use, and methods for their formation” (Cambridge Glycoscience Ltd, priority 2018, dated 2023)
